Measured values published in patent publication EP0603030A2, “Antiviral antibiotic BU-4628V and preparation thereof” (Bristol-Myers Squibb Company, priority 1992, dated 1994).
pIC50: −log10 of the molar value. Like-named read-outs stand apart in the source and are kept apart here. Positions of bridges follow the written chain, without caps; N, C: chain ends. Residues, ends and D or L forms follow the SMILES beside them.

Legend:
[1] = tested on: HIV-1 IIIb; experiment: Anti-HIV activity, XTT assay in CEM-SS cells; type: cell-based, human immunodeficiency virus; settings: HIV-1 IIIb strain, read-out: IC₅₀
Source text: (§2) The antiviral effect is expressed as the inhibitory concentration of a compound which reduces the number of viruses of the infected culture to 50% of that of the drug - untreated, control culture (IC₅₀). The cytotoxicity is expressed as the concentration of a compound which yields 50% of the number of viable cells of the untreated control cultures (IC₅₀).

[2] = Cytotoxicity in Vero cells without virus infection; type: cell-based; settings: Vero cells in the absence of virus, 72 hours at 37°C, 50% growth inhibition, read-out: TD₅₀
Protocol: (§1) The in vitro antiviral activity of BU-4628V was assessed against the herpes simplex virus type 1 (HSV-1) using the KOS strain. The assay was done according to the reported protocol of C. McLaren et al. in Antiviral Research, 3, 223-234, (1986) with minor modification. Briefly, 50 µl of Eagle's MEM medium containing BU-4628V and then 200 µl of the Vero cell suspension (2 X 10⁴ cells/200 µl) were added to a well of a 96-well microtiter plate. To the well, 50µl of medium containing approximately 30 times of the 50% tissue culture infectious dose (50% TCID) of virus was added. In a parallel experiment, the same set of cells without virus infection was prepared, which was for the determination of cytotoxicity of the sample. After 72 hours incubation at 37°C, the inhibition degree of virus-induced cytopathic effect and cytotoxicity by the sample were determined, respectively. The ID₅₀ is expressed as the concentration of a compound showing 50% growth inhibition of the cytopathic effect and the TD₅₀ as the concentration of a compound showing 50% growth inhibition of the cells in the absence of virus. Acyclovir was used as the reference compound for anti-HSV activity in the assay.

[3] = tested on: herpes simplex virus type 1 (HSV-1); experiment: Anti-HSV activity, inhibition of virus-induced cytopathic effect in Vero cells; type: cell-based; settings: HSV-1 KOS strain, 72 hours at 37°C, 50% inhibition of cytopathic effect
Protocol: as §1

[4] = tested on: S. typhi 901; type: cell-based; settings: 901, 18 h, pH 7
[5] = Solubility in solvents; type: physicochemical
Source text: The antiviral antibiotic BU-4628V was isolated as a white amorphous powder.

[6] = tested on: HIV-2 CBL-20; experiment: Anti-HIV activity, XTT assay in CEM-SS cells; type: cell-based, human immunodeficiency virus; settings: HIV-2 CBL-20 strain, read-out: IC₅₀
Source text: The antiviral effect is expressed as the inhibitory concentration of a compound which reduces the number of viruses of the infected culture to 50% of that of the drug - untreated, control culture (IC₅₀).

[7] = Cytotoxicity in CEM-SS cells (XTT assay); type: cell-based; settings: human, concentration yielding 50% of viable cells of untreated control, read-out: cytotoxicity IC₅₀
Source text: as §2

[8] = tested on: CEM-SS cells; experiment: Cytotoxicity in CEM-SS cells (XTT assay); type: cell-based; settings: result in words
Source text: as §2

[9] = tested on: HIV-1 RF; experiment: Anti-HIV activity, XTT assay in CEM-SS cells; type: cell-based, human immunodeficiency virus; settings: HIV-1 RF strain, read-out: IC₅₀
Source text: as §2

[10] = tested on: CEM-SS cells
Source text: as §2

[11] = tested on: human immunodeficiency virus; experiment: Anti-HIV activity, XTT assay in CEM-SS cells (strain not stated); type: cell-based; settings: Human immunodeficiency virus 1, read-out: IC₅₀
[12] = tested on: Vero cell; experiment: Cytotoxicity in Vero cells without virus infection; type: cell-based; settings: Vero cells in the absence of virus, 72 hours at 37°C; 50% growth inhibition
Protocol: as §1

Structure (SMILES): CC[C@H](C)[C@@H]1NC(=O)CNC(=O)[C@H](CC(C)C)NC(=O)[C@@H]2CSSC[C@@H]3NC(=O)CNC(=O)[C@H](C)NC(=O)[C@H](Cc4ccccc4)NC(=O)[C@H](CC(=O)N2)NC(=O)[C@H](CC(N)=O)NC(=O)[C@H](CSSC[C@@H](C(=O)N[C@@H](Cc2ccccc2)C(=O)N[C@@H](Cc2c[nH]c4ccccc24)C(=O)O)NC(=O)[C@H](C(C)C)NC(=O)[C@H]([C@@H](C)CC)NC(=O)[C@H](C)NC(=O)[C@H](Cc2ccc(O)cc2)NC(=O)CNC3=O)NC(=O)[C@H](CO)NC(=O)CNC1=O [BU-4628V] (CLGIGSCNDFAGCGYAIVCFW-OH; disulfide 1-13, 7-19; lactam N-9; C-terminus assumed)
- pIC50 [1]: 6.04
- CC50 at 72 h [2]: > 100 µg/mL
- ID₅₀ [3]: 27 µg/mL
- MIC [4]: >100 µg/mL
- solubility ([5]; in alkaline water): slightly soluble
- solubility ([5]; in benzene): insoluble
- solubility ([5]; in chloroform): insoluble
- solubility ([5]; in dimethyl sulfoxide): soluble
- solubility ([5]; in dimethylformamide): soluble
- solubility ([5]; in ethanol): soluble
- solubility ([5]; in ethyl acetate): insoluble
- solubility ([5]; in methanol): soluble
- solubility ([5]; in n-hexane): insoluble
- solubility ([5]; in petroleum ether): insoluble
- solubility ([5]; in water): insoluble
- pIC50 [6]: 6.49
- CC50 [7]: 26000 to 46000 nM
- cytotoxicity [8]: very weak cytotoxicity
- pIC50 [9]: 6.85

Structure (SMILES): O=c1[nH]cnc2c1ncn2[C@H]1CC[C@@H](CO)O1 [ddI, 2',3'-Dideoxyinosine]
- cytotoxicity [10]: very weak cytotoxicity
- pIC50 [11]: 5.70 to 6.00

Structure (SMILES): Nc1nc2c(ncn2COCCO)c(=O)[nH]1 [Acyclovir]
- TD₅₀ [12]: >100 µg/mL
- ID₅₀ [3]: 0.23 µg/mL
